Measured values as given in PubChem BioAssay (NCI).
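Following 48 hours of exposure in 96-well plates, responses at five concentrations were used to interpolate endpoints linearly. TGI denotes the concentration required for complete inhibition of growth.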

Key:
Assay in all cases: DTP human tumour cell line panel, 48 h
OVCAR-8 ovarian = test system: OVCAR-8 ovarian
SK-MEL-2 melanoma = test system: SK-MEL-2 melanoma
IGROV1 ovarian = test system: IGROV1 ovarian
MDA-MB-435 = test system: MDA-MB-435
SK-MEL-5 melanoma = test system: SK-MEL-5 melanoma
T-47D breast = test system: T-47D breast
K-562 leukemia = test system: K-562 leukemia
UACC-257 melanoma = test system: UACC-257 melanoma
A549 NSCLC = test system: A549 NSCLC
CCRF-CEM leukemia = test system: CCRF-CEM leukemia

SMILES	TGI (OVCAR-8 ovarian) [µM]	TGI (SK-MEL-2 melanoma) [µM]	TGI (IGROV1 ovarian) [µM]	TGI (MDA-MB-435) [µM]	TGI (SK-MEL-5 melanoma) [µM]	TGI (T-47D breast) [µM]	TGI (K-562 leukemia) [µM]	TGI (UACC-257 melanoma) [µM]	TGI (A549 NSCLC) [µM]	TGI (CCRF-CEM leukemia) [µM]
Cc1ccc(/C(Cl)=C/C=C(C#N)C#N)cc1	8.67	> 100	16.2	6.94	4.01	> 100	19.4	6.31	56	> 100
O=c1cc(N2CCNCC2)nc2ccccn12	> 100	> 100	> 100	> 100	> 100	> 100	> 100	> 100	> 100	> 100
Oc1c2cc(Cl)cc1COCc1cc(Cl)cc(c1O)COCc1cc(Cl)cc(c1O)COC2	32.9	> 100	> 100	> 100	> 100	> 100	> 100	> 100	> 100	59.5
COc1ccc(C(=O)c2sc(N(C)C)nc2-c2ccccc2)cc1		76.5	> 100	52	> 100	> 100	> 100	86.1	> 100	65.2
Cc1cc2cc3c(cc2c(-c2ccc([N+](=O)[O-])cc2)n1)OCO3	> 100	> 100	54.9	> 100	> 100	> 100	> 100	> 100	> 100	> 100
C[C@]12CC[C@H](OC(=O)Cc3ccc(N(CCCl)CCCl)cc3)CC1=CC[C@@H]1[C@@H]2CC[C@]2(C)C(=O)CC[C@@H]12	> 100	> 100	> 100	> 100	> 100	> 100	> 100	> 100	> 100	
CC(CCC(=O)O)(c1ccc(O)cc1)c1ccc(O)cc1	> 100	> 100	> 100	> 100	> 100	> 100	> 100	> 100	> 100	
COC(=O)c1cc(C)ccc1C1CN=NC12Cc1ccc(C)cc1C2=O (configuration not stated)	> 100	> 100	> 100	> 100	31.9	> 100	> 100	> 100	> 100	> 100
COc1ccccc1N(CN1C(=O)CCC1C(=O)O)C(C)=O (configuration not stated)	> 100	> 100	> 100	> 100	> 100	> 100	> 100	> 100	> 100	
COc1ccc(/C=C2\CCC(C)C3C2=NN(c2ccccc2)C3c2ccc(OC)c(OC)c2)cc1OC (configuration not stated)	25.3	7.87	8.23	> 100	9.68	9.08	18.5	9.74		10.2
COc1cc2ncnc(Nc3cccc(Cl)c3)c2cc1OC	26.1	30	10.3	34.1	17.4	> 67.1	47.3	37.4	49	19.6
CC(C)(C)C(=O)OCOP(=O)(OCOC(=O)C(C)(C)C)OCC1OC(n2ccc(=O)[nH]c2=O)C(N=[N+]=[N-])C1O (configuration not stated)	12.9		17.5	15.5	16.8	11.7	> 100	18.1	14	13.3
COc1nc(N=P(c2ccccc2)(c2ccccc2)c2ccccc2)cc(=O)[nH]1	> 100	> 100	> 100	> 100	> 100	> 100	> 100	> 100	> 100	> 100
Cc1c(C)c(C)n(C2OC(CO)C(O)C(O)C2O)c(=S)c1C#N (configuration not stated)	> 100	> 100	> 100	> 100	> 100	> 100	> 100	> 100	> 100	> 100
O=S(=O)(SC1=NCCN1)c1ccc2ccccc2c1	40.5	80	> 100	42.8	64.5	> 100	55	> 100	86.3	68
CCCCCCCCCCCCN(CC(O)C(O)C(OC1OC(CO)C(O)C(O)C1O)C(O)CO)C(=O)CCCCCCCCCCC (configuration not stated)	46.7	58.8	35.8	30.8	31.3	62.3	35.5	36.6	55.3	65.1
COC(=O)c1cc2c(cc1CC1Cc3cc4c(cc3C1=O)CCC4)CCC2 (configuration not stated)	> 100	> 100	> 100	> 100	42.5	> 100	> 100	> 100	> 100	> 100
CC(C)(C)/C(=N\Nc1nc2ccccc2[nH]1)c1ccccn1	> 100	> 100	> 100	> 100	> 100	> 100	> 100	> 100	> 100	> 100
O=C(O)c1ccccc1/C=N/NC1=NCCN1	> 100	> 100	> 100	> 100	> 100	> 100	> 100	> 100	> 100	> 100
O=C1CN(C(=O)C2CCCN2C(=O)C2CCCN2)C(=O)CN1 (configuration not stated)	> 100		> 100	> 100	> 100	> 100	> 100		> 100	> 100
O=C1CSSCC(=O)Nc2ccccc2N1	> 100	> 100	> 100	> 100	> 100	> 100	> 100	> 100	> 100	> 100
Cc1ccc([N+](=O)[O-])cc1S(=O)(=O)Nc1ccc(C2=NN(c3ccc([N+](=O)[O-])cc3[N+](=O)[O-])C(c3cccs3)C2)cc1 (configuration not stated)	92.1	32.7	53.7	51.4	26.1	> 100	> 100	42.1	> 100	> 100

SMILES	TGI (OVCAR-8 ovarian) [µM]	TGI (SK-MEL-2 melanoma) [µM]	TGI (IGROV1 ovarian) [µM]	TGI (MDA-MB-435) [µM]	TGI (SK-MEL-5 melanoma) [µM]	TGI (T-47D breast) [µM]	TGI (K-562 leukemia) [µM]	TGI (UACC-257 melanoma) [µM]	TGI (A549 NSCLC) [µM]	TGI (CCRF-CEM leukemia) [µM]
O=c1oc2ccccc2cc1-c1csc(Nc2ccc(F)cc2)n1	23.5	39.2	21.9	17	23.9	10.7	20.6	> 52	3.23	16.3
N#CC1C(=O)N(c2ccccc2)NC12OC(=O)c1ccncc12 (configuration not stated)	> 20	> 20	> 20	> 20	> 20	> 20	> 20	> 20	> 20	> 20
COc1ccccc1NC(=S)Nc1cc(C)cc(C)n1	> 100	> 100	> 100	> 100	> 100	> 100	> 100	> 100	> 100	> 100
O=c1[nH]nc(-c2ccccc2)n1/N=C/c1ccc([N+](=O)[O-])cc1	37.1	67.3	> 100	> 100	> 100	> 60.2	> 100	> 100	> 100	> 100
N#CC12CNCC1CN=N2 (configuration not stated)	> 100	> 100	> 100	> 100	> 100	> 100	> 100	> 100	> 100	> 100
CCOC(=O)c1cc2c([nH]1)c(O)cc1c2ccn1Cc1ccccc1	33.4	36.6	54.3	31	24.5	11.9	25.3	34.8	30.3	39.9
COC(=O)CC(c1cn(S(=O)(=O)c2ccc(C)cc2)c2ccccc12)C1C[C@@H](C(=O)OC)N(C(=O)OC(C)(C)C)C1=O (some centres not stated)	> 100	> 100	> 100	> 100	> 100	> 100	> 100	> 100	> 100	76.9
COc1cc(/C=C2/SC(c3ccccc3)N(c3ccccc3Cl)C2=O)cc(OC)c1OC (configuration not stated)	> 100	> 100		> 100	33.6	> 100	> 100	> 100	> 100	43.4
CO/C(N)=C(\C#N)N=Cc1ccco1	> 100	> 100	> 100	> 100	> 100	> 100	> 100	> 100	> 100	> 100
O=C1N=C(SC2OC(CO)C(O)C(O)C2O)S/C1=C\c1ccccc1 (configuration not stated)	> 100	> 100	> 100	> 100	> 100	> 100	> 100	> 100	> 100	> 100
COC(=O)C1=C(O)C(C(=O)OC)[C@]2(O)[C@H](C(=O)OC)[C@H]1C[C@@H](c1ccc(Cl)cc1)[C@H]2C(=O)OC (some centres not stated)	> 100	6.51	> 100	25.4	20.5	> 100	> 100	26.5	89.5	> 100
CN(C)/N=C(/CC(O)(C(F)(F)F)C(F)(F)F)c1ccc([N+](=O)[O-])cc1	> 100	> 100	> 100	> 100	> 100	> 100	> 100	> 100	> 100	> 100
Cc1cc(C)c2c(O)c(S(=O)(=O)c3ccc(Cl)cc3)c(=O)oc2c1	> 100	> 100	> 100	> 100	> 100	> 100	> 100	> 100	> 100	> 100
O=c1[nH]nc(-c2ccccc2)n1-c1ccncc1	> 100		> 100	> 100	> 100	> 100	> 100	> 100	> 100	> 100
CC1(C)C2CCC(CN)(C2)C1N (configuration not stated)	> 100	> 100	> 100	> 100	> 100	> 100	> 100	> 100	> 100	> 100
c1nc(N2CC2)c2cnn(C3CCCCO3)c2n1 (configuration not stated)	> 100	> 100	> 100	> 100	> 100	> 100	> 100	> 100	> 100	> 100
OC1(c2ccccc2)C2CCN(CC2)C1CN1CCOCC1 (configuration not stated)	> 100	> 100	> 100	> 100	> 100	> 100	> 100	> 100	> 100	> 100
Cc1ccc(S(=O)(=O)c2ccsc2NC(=O)C(F)(F)F)cc1	> 100	94.7	> 100	> 100	44.4	> 100		> 100	> 100	
N#Cc1c(=O)n(-c2ccccc2)c(O)c2c(N)n[nH]c12	> 100	> 100	> 100	> 100	> 100	> 100	> 100	> 100	> 100	
COc1cc(/C=N\N(C)C)cc(/C=N/N(C)C)c1O		28.1		> 100	> 100	15.2		98.5	> 100	72.4
CC(=N)OC1CC2CCC1(C)C2(C)C (configuration not stated)	> 100		> 100	> 100	> 100	> 100	> 100	> 100	> 100	> 100
c1ccc2c(c1)CC1=C(O2)c2ccccc2OC1	> 100	70.3	> 100	86.3	44.3	67.9		> 100	> 100	> 100
